Test results from patent US4117136A, “Systemic antimicrobial quinolines for plant disease” (Sumitomo Chemical Company, Ltd., priority 1976, dated 1978).
Converted amounts (≈) assume the structure as drawn. Structures can show the parent of a compound that is named as a salt. Where two headings read alike, the source gives them in different places.

Columns and labels:
Xanthomonas oryzae = format: in vivo, Xanthomonas oryzae (on rice plant, Kinki #33); conditions: spray, 500 ppm, 4 hours before inoculation, 7 days, bacterial-exudation method
E. carotovora = experiment: Antibacterial activity against E. carotovora (agar dilution MIC); conditions: for MIC: Pectobacterium carotovorum, 72 h, read-out: MIC (minimum inhibitory concentration); for antibacterial activity: result in words, in vitro, Erwinia carotovora
Pseudomonas solanacearum = format: in vivo, Pseudomonas solanacearum (on tomato, Sekai Ichi); conditions: soil application, one day after inoculation, assessed after additional 10 days
Pseudomonas lachrymans = experiment: Disease prevention effect on angular leaf spot of cucumber; format: in vivo, Pseudomonas lachrymans (on cucumber, Cucumis sativus L.); conditions: spray, 4 hours before inoculation
Protocol: Four hours after the application of the sample, a suspension of Pseudomonas lachrymans was inoculated by spraying on the plant. […] Incidence of disease was assessed in the following manner. […] |______________________________________ |______________________________________ |0 Healthy […] |3 26-50% diseased spot areas […] | [drawing 22] Five plants were used for each treatment.

P. lachrymans = experiment: Controlling angular leaf spot of cucumber by seed treatment; conditions: grown 2 weeks
Erwinia carotovora = experiment: Plant systemic activity (root immersion, Chinese cabbage); conditions: roots immersed, 10 ppm, inoculated after 2 days
[1] = inoculated seeds soaked 30 minutes, 500 ppm

SMILES	Severity of Disease (Xanthomonas oryzae)	MIC (E. carotovora)	Ratio of Diseased Seedling (Pseudomonas solanacearum; 500 ppm)	Severity of Disease (Pseudomonas lachrymans; 500 ppm)	Infected Plants (P. lachrymans; [1])	Severity of Disease (Erwinia carotovora)	further results
CCn1cc(C(=O)OC)c(=O)c2cc3c(cc21)OCO3 [(2)]	0%	> 50 µg/mL	36%	25%	0%	0%	antibacterial activity (E. carotovora): very weak antibacterial activity
COn1cc(C(=O)O)c(=O)c2cc3c(cc21)OCO3 [(3)]	–	0.39 µg/mL (≈ 1.48 µM)	–	–	–	–	–
O=C(O)c1cn(CC(F)(F)F)c2cc3c(cc2c1=O)OCO3 [(6)]	–	3.12 µg/mL (≈ 9.9 µM)	–	–	–	–	–
CCOC(=O)c1cn(CCF)c2cc3c(cc2c1=O)OCO3 [(8)]	0%	> 50 µg/mL	24%	21%	0%	0%	antibacterial activity (E. carotovora): very weak antibacterial activity
COn1cc(C(=O)O)c(=O)c2c3sc(=O)n(C)c3ccc21 [(10)]	–	0.049 µg/mL (≈ 0.16 µM)	–	–	–	25%	–
CCn1c(C)c(C(=O)O)c(=O)c2cc3c(cc21)OCO3 [(11)]	–	> 50 µg/mL	–	–	–	–	antibacterial activity (E. carotovora): very weak antibacterial activity
C=Cn1cc(C(=O)O)c(=O)c2cc3c(cc21)OCO3 [(13)]	0%	–	4%	2.4%	0%	0%	MIC (minimum inhibitory concentration) (E. carotovora; agar culture medium, 3 days at 27° C): 0.78 µg/mL (≈ 3.01 µM)
CCn1cc(C(=O)O)c(=O)c2cc3c(cc21)OCO3 [Compound (1)]	0%	1.56 µg/mL (≈ 5.97 µM)	10%	7.9%	0%	0%	–
C=Cn1cc(C(=O)O)c(=O)c2cc3c(cc21)OCO3 [Compound (4)]	0%	0.78 µg/mL (≈ 3.01 µM)	6%	4.6%	0%	0%	–
O=C(O)c1cn(CCF)c2cc3c(cc2c1=O)OCO3 [Compound (7)]	0%	0.78 µg/mL (≈ 2.79 µM)	18%	12%	0%	0%	–
O=C(O)c1cn(CCCl)c2cc3c(cc2c1=O)OCO3 [Compound (9)]	0%	1.56 µg/mL (≈ 5.28 µM)	14%	19%	–	0%	–
CCn1cc(C(=O)O)c(=O)c2ccc(C)nc21 [Nalidixic acid, nalidixic acid, reference compound]	–	6.25 µg/mL (≈ 26.9 µM)	–	–	–	–	–
OCl [Sodium Hypochlorite, reference compound]	–	–	–	–	–	–	Infected Plants (P. lachrymans; inoculated seeds soaked 30 minutes, 2,000 ppm): 7.5%
[H]/N=C(/N)N[C@H]1[C@H](O)[C@@H](O)[C@H](O[C@@H]2O[C@@H](C)[C@](O)(C=O)[C@H]2O[C@@H]2O[C@@H](CO)[C@H](O)[C@@H](O)[C@@H]2NC)[C@@H](N/C(N)=N\[H])[C@@H]1O [Streptomycin Sulfate, reference compound]	–	–	–	–	–	31%	Ratio of Diseased Seedling (Pseudomonas solanacearum; 200 ppm): 86%; Severity of Disease (Pseudomonas lachrymans; 200 ppm): 28%; Infected Plants (P. lachrymans; inoculated seeds soaked 30 minutes, 200 ppm): 26.5%
